Our source for the inhibition values is patent publication US20110105457A1, “HETEROCYCLIC COMPOUND HAVING INHIBITORY ACTIVITY ON PI3K” (SHIONOGI & CO., LTD., priority 2008, published 2011).

The test concerns the target PI-3 kinase γ (Homo sapiens, UniProt P48736). The test can be described thus: PI3Kγ inhibitory activity, PI3-kinase HTRF assay (Millipore). The test is classed as biochemical. The conditions noted are these: 0.5 h; compound 50 μM; read-out: Inhibition ratio % (50 μM). On the procedure:
(Method) The PI3Kγ inhibitory activity of a compound was evaluated using PI3-kinase HTRF™ assay (Millipore) according to the following procedure.
To each well of a testing plate was added 5 μL of a compound solution comprising 10% DMSO (200 μM as the concentration of the compound), 5 μL of 40 μM phosphatidylinositol (4,5)-bisphosphate/20 mM MgCl2/10 mM DTT, and 5 μL of 80 μg/mL PI-3 kinase γ/10 mM MgCl2/5 mM DTT, and then stood for 10 minutes.
Then, 5 μL of 40 μM ATP/10 mM MgCl2/5 mM DTT was added thereto. After reacting for 30 minutes at room temperature, 5 μL of a solution comprising EDTA and biotinylated phosphatidylinositol (3,4,5)-triphosphate was added to quench the reaction.
5 μL of a detection reagent comprising a europium-labeled anti-GST antibody, the GST-tagged PH domain, and allophycocyanin-labeled streptavidin was added thereto. After 18 hours, HTRF (excitation wavelength: 330 nm, measuring wavelengths: 620 nm and 665 nm) was measured.
A value of dividing an amount of fluorescence obtained at the measuring wavelength 665 nm by an amount of fluorescence obtained at 620 nm was defined as an HTRF ratio. The HTRF ratio in the absence of a compound was defined as 100% activity, and the HTRF ratio in the absence of PI-3 kinase γ was defined as 0% activity to calculate an inhibition ratio.
For orientation: Time-resolved FRET reads energy transfer from a long-lived donor to a nearby acceptor.

PI-3 kinase γ, sequence (P48736 whole entry): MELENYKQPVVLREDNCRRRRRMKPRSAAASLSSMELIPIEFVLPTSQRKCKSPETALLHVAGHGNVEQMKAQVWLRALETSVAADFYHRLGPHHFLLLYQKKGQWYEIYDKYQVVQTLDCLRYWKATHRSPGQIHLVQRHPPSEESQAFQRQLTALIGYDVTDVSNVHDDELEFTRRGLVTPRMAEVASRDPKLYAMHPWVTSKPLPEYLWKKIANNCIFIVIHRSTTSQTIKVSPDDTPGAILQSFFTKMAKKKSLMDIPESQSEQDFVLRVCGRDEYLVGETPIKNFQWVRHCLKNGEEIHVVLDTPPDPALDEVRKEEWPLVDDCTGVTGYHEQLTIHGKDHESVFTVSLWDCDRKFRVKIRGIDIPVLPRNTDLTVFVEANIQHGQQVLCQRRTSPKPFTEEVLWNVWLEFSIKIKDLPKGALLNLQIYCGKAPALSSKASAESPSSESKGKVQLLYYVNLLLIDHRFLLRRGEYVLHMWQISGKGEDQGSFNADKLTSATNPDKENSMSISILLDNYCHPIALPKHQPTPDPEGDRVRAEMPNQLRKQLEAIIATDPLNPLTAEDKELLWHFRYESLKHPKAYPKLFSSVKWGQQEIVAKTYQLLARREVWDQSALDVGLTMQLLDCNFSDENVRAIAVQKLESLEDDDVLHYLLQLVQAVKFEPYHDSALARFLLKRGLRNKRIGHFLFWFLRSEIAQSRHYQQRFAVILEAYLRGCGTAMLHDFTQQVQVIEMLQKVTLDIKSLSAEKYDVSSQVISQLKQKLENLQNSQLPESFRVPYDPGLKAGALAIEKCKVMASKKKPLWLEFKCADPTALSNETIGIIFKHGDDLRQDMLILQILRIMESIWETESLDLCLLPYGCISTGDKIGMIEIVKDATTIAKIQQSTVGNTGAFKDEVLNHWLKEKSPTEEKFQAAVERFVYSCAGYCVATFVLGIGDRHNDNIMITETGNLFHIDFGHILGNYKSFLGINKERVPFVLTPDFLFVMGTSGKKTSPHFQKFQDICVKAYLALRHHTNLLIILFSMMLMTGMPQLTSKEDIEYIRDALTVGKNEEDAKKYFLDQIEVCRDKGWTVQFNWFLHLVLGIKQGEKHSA

In the case of `CNC(=O)Nc1cn2nc(-c3cccc([N+](=O)[O-])c3)ccc2n1` [Compound I-128], the inhibition at 50 µM was determined as 50%. The result for `CNC(=O)Nc1cn2nc(-c3cccc(COC(C)(C)C)c3)ccc2n1` [Compound I-131] reads 70%. The result for `CNC(=O)Nc1cn2nc(-c3cccc(COC)c3)ccc2n1` [Compound I-132] reads 78%; that for `CNC(=O)Nc1cn2nc(-c3ccc(-c4ccccc4)s3)ccc2n1` [Compound I-133], 65%. Turning to `CNC(=O)Nc1cn2nc(-c3cccc(C#N)c3)ccc2n1` [Compound I-134], the inhibition at 50 µM is 59%.

For `CNC(=O)Nc1cn2nc(-c3cccc(SC)c3)ccc2n1` [Compound I-135], the inhibition at 50 µM is 80%. For `CNC(=O)Nc1cn2nc(-c3cccc(C(=O)N4CCOCC4)c3)ccc2n1` [Compound I-138], the inhibition at 50 µM was 75%. Then `CNC(=O)Nc1cn2nc(-c3cccc(C(=O)NC(C)C)c3)ccc2n1` [Compound I-139], with 79%. Turning to `CNC(=O)Nc1cn2nc(-c3cccc(C(=O)NCC(C)C)c3)ccc2n1` [Compound I-140], the inhibition at 50 µM is 60%. Turning to `CNC(=O)Nc1cn2nc(-c3cn[nH]c3)ccc2n1` [Compound I-141], the inhibition at 50 µM was 87%. The result for `CNC(=O)Nc1cn2nc(-c3cncnc3)ccc2n1` [Compound I-145] reads 70%. As to `CNC(=O)Nc1cn2nc(-c3cccc(OC(C)=O)c3)ccc2n1` [Compound I-146], the inhibition at 50 µM came to 64%. For `CNC(=O)Nc1cn2nc(-c3ccncc3)ccc2n1` [Compound I-147], the inhibition at 50 µM was found to be 77%.

`CNC(=O)Nc1cn2nc(-c3ccc(OC)nc3)ccc2n1` [Compound I-148]: the inhibition at 50 µM came to 83%. The result for `CNC(=O)Nc1cn2nc(/C=C/c3ccc(OC)cc3)ccc2n1` [Compound I-149] reads 53%; that for `CNC(=O)Nc1cn2nc(-c3cccc(OCc4ccccc4)c3)ccc2n1` [Compound I-150], 71%; that for `CNC(=O)Nc1cn2nc(-c3cccc(OC)n3)ccc2n1` [Compound I-151], 63%.

Regarding `CNC(=O)Nc1cn2nc(-c3cccc(O)c3)ccc2n1` [Compound I-152], the inhibition at 50 µM turned out to be 80%. As for `CNC(=O)Nc1cn2nc(-c3cccc(C(F)(F)F)c3)ccc2n1` [Compound I-154], the inhibition at 50 µM is 54%. The result for `CNC(=O)Nc1cn2nc(-c3cccc(-c4ccccc4)c3)ccc2n1` [Compound I-155] reads 57%.

For `CNC(=O)Nc1cn2nc(COc3ccccc3)ccc2n1` [Compound I-157], the inhibition at 50 µM came out at 58%. Then `CNC(=O)Nc1cn2nc(NC(=O)Nc3cccc(C(=O)O)c3)ccc2n1` [Compound I-159], with 86%; and `CNC(=O)Nc1cn2nc(NC(=O)c3ccc(C(=O)O)cc3)ccc2n1` [Compound I-160], with 77%. In the case of `CNC(=O)Nc1cn2nc(Nc3cccc(N(C)C)c3)ccc2n1` [Compound I-161], the inhibition at 50 µM was determined as 102%. As for `CNC(=O)Nc1cn2nc(Nc3cccc(C(=O)O)c3)ccc2n1` [Compound I-162], the inhibition at 50 µM was 89%. `COc1cccc(-c2ccc3nc(NC(=O)CC(C)CC(C)(C)C)cn3n2)c1` (centres unmarked) [Compound I-164]: the inhibition at 50 µM was determined as 89%.

Turning to `COc1cccc(-c2ccc3nc(NC(=O)c4ccccn4)cn3n2)c1` [Compound I-168], the inhibition at 50 µM turned out to be 64%.

Turning to `COc1cccc(-c2ccc3nc(NC(=O)c4ccncc4)cn3n2)c1` [Compound I-170], the inhibition at 50 µM amounted to 60%. Then `COC(=O)C[C@H](C)CC(=O)Nc1cn2nc(-c3cccc(OC)c3)ccc2n1` [Compound I-171], with 71%; and `COc1cccc(-c2ccc3nc(NC(=O)CCC(=O)N(C)C)cn3n2)c1` [Compound I-172], with 81%. Consider `COc1cccc(-c2ccc3nc(NC(=O)Cc4ccccc4OC)cn3n2)c1` [Compound I-174], for which the inhibition at 50 µM is 78%. Then `COc1cccc(-c2ccc3nc(NC(=O)CNC(C)=O)cn3n2)c1` [Compound I-175], with 66%.

Consider `COc1cccc(-c2ccc3nc(NC(=O)c4ccc5[nH]nnc5c4)cn3n2)c1` [Compound I-177], for which the inhibition at 50 µM came out at 85%. Then `COc1cccc(-c2ccc3nc(NC(=O)c4ccc[nH]4)cn3n2)c1` [Compound I-180], with 96%; and `COc1cccc(-c2ccc3nc(NC(=O)CC(C)(C)C)cn3n2)c1` [Compound I-186], with 78%. The result for `COc1cccc(-c2ccc3nc(NC(=O)CC4CC4)cn3n2)c1` [Compound I-188] reads 65%. Take `COC(=O)c1cccc(C(=O)Nc2cn3nc(-c4cccc(OC)c4)ccc3n2)c1` [Compound I-192]: the inhibition at 50 µM was found to be 52%. Turning to `COc1cccc(-c2ccc3nc(NC(=O)C4CCOCC4)cn3n2)c1` [Compound I-194], the inhibition at 50 µM is 84%.

Regarding `COC(=O)[C@H]1CC[C@@H](C(=O)Nc2cn3nc(-c4cccc(OC)c4)ccc3n2)C1` [Compound I-195], the inhibition at 50 µM was determined as 82%. The result for `COc1cccc(-c2ccc3nc(NC(=O)c4ccc(OC)c(OC)c4)cn3n2)c1` [Compound I-198] reads 57%; that for `COc1cccc(-c2ccc3nc(NC(=O)c4cccc(N5CCOCC5)c4)cn3n2)c1` [Compound I-202], 83%; that for `COc1cccc(-c2ccc3nc(NC(=O)c4cccc(N5CCN(C)CC5)c4)cn3n2)c1` [Compound I-203], 68%. Consider `COc1cccc(-c2ccc3nc(NC(=O)c4cccc(-n5cncn5)c4)cn3n2)c1` [Compound I-204], for which the inhibition at 50 µM was determined as 84%. The result for `COc1cccc(-c2ccc3nc(NC(=O)[C@H]4CCCCN4C(=O)OC(C)(C)C)cn3n2)c1` [Compound I-207] reads 64%; that for `COc1cccc(-c2ccc3nc(NC(=O)CCCN4CCCC4=O)cn3n2)c1` [Compound I-209], 81%; that for `COc1cccc(-c2ccc3nc(NC(=O)C4CCN4C(C)(C)C)cn3n2)c1` (centres unmarked) [Compound I-211], 61%. On to `COc1cccc(-c2ccc3nc(NC(=O)CN(C)C(=O)OC(C)(C)C)cn3n2)c1` [Compound I-212], for which the inhibition at 50 µM was determined as 60%. As for `COCCC(=O)Nc1cn2nc(-c3cccc(OC)c3)ccc2n1` [Compound I-213], the inhibition at 50 µM stood at 73%.

Regarding `CNC(=O)Nc1cn2nc(Nc3cccc(C(N)=O)c3)ccc2n1` [Compound I-215], the inhibition at 50 µM was 70%. Take `CNC(=O)Nc1cn2nc(Nc3cccc(C(=O)NC)c3)ccc2n1` [Compound I-216]: the inhibition at 50 µM was 55%.

Take `CNC(=O)Nc1cn2nc(COc3cccc(C(=O)OC)c3)ccc2n1` [Compound I-217]: the inhibition at 50 µM turned out to be 62%. In the case of `CNC(=O)Nc1cn2nc(COc3cccnc3)ccc2n1` [Compound I-218], the inhibition at 50 µM was determined as 63%. Then `COc1cccc(-c2ccc3nc(Nc4ccccn4)cn3n2)c1` [Compound I-220], with 59%; and `CNC(=O)Nc1cn2nc(Nc3cccc(CO)c3)ccc2n1` [Compound I-222], with 87%. For the molecule `CCOC(=O)CNC(=O)Nc1cn2nc(-c3cncc(OC)c3)ccc2n1` [Compound I-223], the inhibition at 50 µM was 86%. In the case of `COc1cccc(-c2ccc3nc(NC(=O)Nc4nccs4)cn3n2)c1` [Compound I-232], the inhibition at 50 µM is 51%. The result for `COc1cccc(-c2ccc3nc(NC(=O)NC4CCCCNC4=O)cn3n2)c1` (centres unmarked) [Compound I-233] reads 79%; that for `COc1cccc(-c2ccc3nc(NC(=O)NCc4ccco4)cn3n2)c1` [Compound I-234], 71%; that for `COc1cccc(-c2ccc3nc(NC(=O)NCCCN4CCCC4=O)cn3n2)c1` [Compound I-235], 78%. Then `COc1cccc(-c2ccc3nc(NC(=O)NCc4ccccn4)cn3n2)c1` [Compound I-236], with 67%. With `COc1cccc(-c2ccc3nc(NC(=O)NCCNC(C)=O)cn3n2)c1` [Compound I-237], the inhibition at 50 µM is 74%. Take `COc1cccc(-c2ccc3nc(NC(=O)NCc4cccnc4)cn3n2)c1` [Compound I-239]: the inhibition at 50 µM stood at 74%. As for `COc1cccc(-c2ccc3nc(NC(=O)N4CCC[C@H]4CO)cn3n2)c1` [Compound I-240], the inhibition at 50 µM is 73%. As for `COc1cccc(-c2ccc3nc(NC(=O)Nc4ccc5[nH]ccc5c4)cn3n2)c1` [Compound I-241], the inhibition at 50 µM amounted to 67%. The result for `COc1cccc(-c2ccc3nc(NC(=O)Nc4ccon4)cn3n2)c1` [Compound I-243] reads 78%; that for `COCCCNC(=O)Nc1cn2nc(-c3cccc(OC)c3)ccc2n1` [Compound I-244], 87%; that for `COCCNC(=O)Nc1cn2nc(-c3cccc(OC)c3)ccc2n1` [Compound I-245], 76%.

In the case of `COc1cccc(-c2ccc3nc(NC(=O)N4CCC[C@H]4C(=O)OC(C)(C)C)cn3n2)c1` [Compound I-249], the inhibition at 50 µM was determined as 59%.
